Reference: patent US8933039B2 (NPS Pharmaceuticals, Inc., priority 1995, dated 2015)
Non-standard residues stand in square brackets, D forms with d. Residues, ends and D or L forms follow the SMILES beside them. No end group written: not given here. Tle = CC(C)(C)[C@H](N)C(=O)O; Nle = CCCC[C@H](N)C(=O)O; Abu = CC[C@H](N)C(=O)O

Columns and labels:
[1] = tested on: CD1 mice; assay: Intestinotrophic activity assessment: small bowel weight in mice; format: in vivo; conditions: for % Increase in small bowel weight: CD1 mice, 2.5 μg peptide s.c. b.i.d. in PBS, sacrificed 10 or 14 days, relative to vehicle only; for % Activity (small bowel inducing activity relative to native rat GLP-2(1-33) = 100%): mice, as Example 4
Experimental: Recipients were CD1 mice obtained from Charles River Laboratory (Ontario, Canada). The CD1 mice were aged-matched females at time of injection (n=3-4 per group), 6 weeks of age, unless otherwise specified. The animals were allowed a minimum of 24 hours to acclimatize to the laboratory facility before the initiation of each experiment. Animals were identified by ear punch. The mice were not restricted by diet or activity during the experiments. The light/dark cycle was 12 hours, between 6 pm to 6 am. Controls were age- and sex-matched (n=3-4) animals. Mice were injected subcutaneously, twice a day (b.i.d.), with 2.5 μg peptide in a total volume of 0.5 cc of PBS and were monitored daily in the laboratory facility. Animals were sacrificed 10 or 14 days after injection, and were fasted at least 20 hours before sacrifice.
The mice were anaesthetised with CO2 and exsanguinated by cardiac puncture. Blood was collected in 75 μl of TED (Trasysol; EDTA (5000 KIU/ml: 1.2 mg/ml; Diprotin-A), and the blood was centrifuged at 14 k×g for 5 minutes and the plasma was stored at −70 prior to analysis. The small bowel was removed from the peritoneal cavity, from pylorus to cecum, cleaned weighed and measured. For comparative purpose, sections from each animal were obtained from the identical anatomical position. Fragments each measuring 1.5-2.0 cm in length were obtained 8±2 cm, 18±2 cm, 32±2 cm from pylorus for histomorphometry representing proximal jejunum, distal jejunum and distal ileum. Each small bowel fragment was opened longitudinally on its antimesenteric border in a tissue block and then placed on 10% formalin (vol./vol.) overnight, then transferred to 70% […].
Percentage change in small bowel weight was calculated by dividing the mean change in bowel weight of analog treated mice, relative to mice treated with vehicle only, by the mean bowel weight of mice treated with vehicle only, and multiplying this figure by 100.
Experiments assessing the small bowel inducing activity of various analogs was repeated as described above for Example 4. In these experiments, the small bowel inducing activity of each analog in mice was calculated relative to that of native rat GLP-2(1-33) (expressed as 100% of activity). Resistance of analogs to DPP-IV cleavage was performed as described above in Example 3.

[2] = biological target: DPP-IV (Homo sapiens, UniProt P27487); assay: Assay for resistance to dipeptidyl peptidase IV (RP-HPLC of cleavage product); conditions: human, isolated human placental DPP-IV (dipeptidyl peptidase IV), pH 7.4, % Cleaved by DPP-IV, as Example 3: human placental DPP-IV, 37° C., PBS pH 7.4
Chain of DPP-IV (P27487 whole entry): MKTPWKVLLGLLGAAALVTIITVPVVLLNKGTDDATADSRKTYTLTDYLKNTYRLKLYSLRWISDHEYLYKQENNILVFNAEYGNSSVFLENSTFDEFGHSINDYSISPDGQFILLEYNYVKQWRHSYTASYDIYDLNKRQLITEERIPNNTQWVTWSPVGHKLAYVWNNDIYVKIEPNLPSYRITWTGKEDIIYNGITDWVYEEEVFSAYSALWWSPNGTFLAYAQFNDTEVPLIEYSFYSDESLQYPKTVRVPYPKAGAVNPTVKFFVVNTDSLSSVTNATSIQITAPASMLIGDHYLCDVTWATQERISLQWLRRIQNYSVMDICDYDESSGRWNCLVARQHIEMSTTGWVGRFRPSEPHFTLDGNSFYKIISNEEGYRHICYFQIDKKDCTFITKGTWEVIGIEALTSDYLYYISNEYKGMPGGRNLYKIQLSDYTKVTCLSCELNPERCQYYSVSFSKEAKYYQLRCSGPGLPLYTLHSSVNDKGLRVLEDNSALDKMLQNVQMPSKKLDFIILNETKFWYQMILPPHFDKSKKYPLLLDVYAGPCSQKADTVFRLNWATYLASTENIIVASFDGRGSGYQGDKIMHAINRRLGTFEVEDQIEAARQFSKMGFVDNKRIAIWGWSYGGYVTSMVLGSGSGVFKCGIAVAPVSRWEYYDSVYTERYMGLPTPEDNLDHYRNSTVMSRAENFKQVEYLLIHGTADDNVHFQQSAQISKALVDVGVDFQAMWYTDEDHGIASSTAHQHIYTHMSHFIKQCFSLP
Experimental: The mixture was incubated at 37° C. in a circulating water bath for 24 hours. The incubation was quenched by the addition of 50 μl of a solution of diprotin A prepared at a concentration of 4 mg/ml in PBS. Each peptide was tested in duplicate.
Each sample was analyzed by reverse-phase (RP) HPLC as follows: 90 μl of the quenched incubation mixture was injected onto a Rainin Dynamax 300 Å, C18, 5 micron, 4.6×250 millimeter column. The samples were eluted with 0.1% trifluoroacetic acid (TFA) in water modified with 0.1% acetonitrile using a linear gradient and a flow rate of 1 ml per minute. Sample components were detected at 214 nanometers (nm). The extent of cleavage was measured by relative integration of the peak corresponding to the cleavage product compared to that of the remaining undigested parent peptide.

| Molecule | % Increase in small bowel weight [1] [%] | % Activity (small bowel inducing activity relative to native rat GLP-2(1-33) = 100%) [1] [%] | metabolised at 24 h, 0.19 mg/ml [2] [%] |
| --- | --- | --- | --- |
| H-HGDGSFSDEMNTILDNLAARDFIAWLIQTKITD-OH [[Gly2,Ala24]hGLP-2(1-33)] | 67 | 139 | 0 |
| H-HADGSFSDEMNTILDNLAARDFINWLIQTRITD-OH [[Arg30]hGLP-2(1-33)] |  | 103 | 59 |
| HVDGSFSDEMNTILDNLATRDFINWLIQTKITD [[Val2]GLP-2(1-33)] | 65 | 145 | 0 |
| HSQGSFSDEMNTILDNLAARDFINWLIQTKITD [[Ser2,Gln3]hGLP-2(1-33)] |  |  | 0 |
| CC[C@H](C)[C@H](NC(=O)[C@H](Cc1ccccc1)NC(=O)[C@H](CC(=O)O)NC(=O)[C@H](CCCNC(=N)N)NC(=O)[C@H](C)NC(=O)[C@H](C)NC(=O)[C@H](CC(C)C)NC(=O)[C@H](CC(N)=O)NC(=O)[C@H](CC(=O)O)NC(=O)[C@H](CC(C)C)NC(=O)[C@@H](NC(=O)[C@@H](NC(=O)[C@H](CC(N)=O)NC(=O)[C@H](CCSC)NC(=O)[C@H](CCC(=O)O)NC(=O)[C@H](CC(=O)O)NC(=O)[C@H](CO)NC(=O)[C@H](Cc1ccccc1)NC(=O)[C@H](CO)NC(=O)CNC(=O)[C@H](CC(=O)O)NC(=O)[C@@H](NC(=O)[C@@H](N)Cc1c[nH]cn1)C(C)(C)C)[C@@H](C)O)[C@@H](C)CC)C(=O)N[C@@H](CC(N)=O)C(=O)N[C@@H](Cc1c[nH]c2ccccc12)C(=O)N[C@@H](CC(C)C)C(=O)N[C@H](C(=O)N[C@@H](CCC(N)=O)C(=O)N[C@H](C(=O)N[C@@H](CCCCN)C(=O)N[C@H](C(=O)N[C@H](C(=O)N[C@@H](CC(=O)O)C(=O)O)[C@@H](C)O)[C@@H](C)CC)[C@@H](C)O)[C@@H](C)CC [[tBuGly2]hGLP-2] (H-H[Tle]DGSFSDEMNTILDNLAARDFINWLIQTKITD-OH) |  | 123 | 0 |
| H-HGDGAFSDEMNTILDNLAARDFINWLIQTKITD-OH [[Gly2,Ala5]hGLP-2(1-33)] | 38 | 136 | 0 |
| H-RHADGSFSDEMNTILDNLATRDFINWLIQTKITD-OH [[Arg-l]ratGLP-2(-1-33)] |  | 11 | 0 |
| H-YADGSFSDEMNTILDNLATRDFINWLIQTKITD-OH [[Tyr1]ratGLP-2(1-33)] | 37 | 81 | 100 |
| H-HIDGSFSDEMNTILDNLAARDFINWLIQTKITD-OH [[Ile2]hGLP-2(1-33)] |  | 90 | 0 |
| H-HDDGSFSDEMNTILDNLAARDFINWLIQTKITD-OH [[Asp2]hGLP-2(1-33)] |  | 83 | 0 |
| CC[C@H](C)[C@H](NC(=O)[C@H](Cc1ccccc1)NC(=O)[C@H](CC(=O)O)NC(=O)[C@H](CCCNC(=N)N)NC(=O)[C@H](C)NC(=O)[C@H](C)NC(=O)[C@H](CC(C)C)NC(=O)[C@H](CC(N)=O)NC(=O)[C@H](CC(=O)O)NC(=O)[C@H](CC(C)C)NC(=O)[C@@H](NC(=O)[C@@H](NC(=O)[C@H](CC(N)=O)NC(=O)[C@H](CCSC)NC(=O)[C@H](CCC(=O)O)NC(=O)[C@H](CC(=O)O)NC(=O)[C@H](CO)NC(=O)[C@H](Cc1ccccc1)NC(=O)[C@H](CO)NC(=O)CNC(=O)[C@H](CC(=O)O)NC(=O)[C@@H](C)NC(=O)[C@@H](N)Cc1c[nH]cn1)[C@@H](C)O)[C@@H](C)CC)C(=O)N[C@@H](CC(N)=O)C(=O)N[C@@H](Cc1c[nH]c2ccccc12)C(=O)N[C@@H](CC(C)C)C(=O)N[C@H](C(=O)N[C@@H](CCC(N)=O)C(=O)N[C@H](C(=O)N[C@@H](CCCCN)C(=O)N[C@H](C(=O)N[C@H](C(=O)N[C@@H](CC(=O)O)C(=O)O)[C@@H](C)O)[C@@H](C)CC)[C@@H](C)O)[C@@H](C)CC [[D-Ala2]hGLP-2(1-33)] |  | 130 | 0 |
| H-HNDGSFSDEMNTILDNLAARDFINWLIQTKITD-OH [[Asn2]hGLP-2(1-33)] |  | 67 | 0 |
| CC[C@H](NC(=O)[C@@H](N)Cc1c[nH]cn1)C(=O)N[C@@H](CC(=O)O)C(=O)NCC(=O)N[C@@H](CO)C(=O)N[C@@H](Cc1ccccc1)C(=O)N[C@@H](CO)C(=O)N[C@@H](CC(=O)O)C(=O)N[C@@H](CCC(=O)O)C(=O)N[C@@H](CCSC)C(=O)N[C@@H](CC(N)=O)C(=O)N[C@H](C(=O)N[C@H](C(=O)N[C@@H](CC(C)C)C(=O)N[C@@H](CC(=O)O)C(=O)N[C@@H](CC(N)=O)C(=O)N[C@@H](CC(C)C)C(=O)N[C@@H](C)C(=O)N[C@@H](C)C(=O)N[C@@H](CCCNC(=N)N)C(=O)N[C@@H](CC(=O)O)C(=O)N[C@@H](Cc1ccccc1)C(=O)N[C@H](C(=O)N[C@@H](CC(N)=O)C(=O)N[C@@H](Cc1c[nH]c2ccccc12)C(=O)N[C@@H](CC(C)C)C(=O)N[C@H](C(=O)N[C@@H](CCC(N)=O)C(=O)N[C@H](C(=O)N[C@@H](CCCCN)C(=O)N[C@H](C(=O)N[C@H](C(=O)N[C@@H](CC(=O)O)C(=O)O)[C@@H](C)O)[C@@H](C)CC)[C@@H](C)O)[C@@H](C)CC)[C@@H](C)CC)[C@@H](C)CC)[C@@H](C)O [[aAbu2]hGLP-2(1-33)] (H-H[Abu]DGSFSDEMNTILDNLAARDFINWLIQTKITD-OH) |  | 84 | 49 |
| RRADGSFSDEMNTILDNLATRDFINWLIQTKITD [[Arg-2,Arg-1]ratGLP-2(2-33)] |  |  | 0 |
| CCCC[C@H](NC(=O)[C@H](CCC(=O)O)NC(=O)[C@H](CC(=O)O)NC(=O)[C@H](CO)NC(=O)[C@H](Cc1ccccc1)NC(=O)[C@H](CO)NC(=O)CNC(=O)[C@H](CC(=O)O)NC(=O)[C@H](C)NC(=O)[C@@H](N)Cc1c[nH]cn1)C(=O)N[C@@H](CC(N)=O)C(=O)N[C@H](C(=O)N[C@H](C(=O)N[C@@H](CC(C)C)C(=O)N[C@@H](CC(=O)O)C(=O)N[C@@H](CC(N)=O)C(=O)N[C@@H](CC(C)C)C(=O)N[C@@H](C)C(=O)N[C@H](C(=O)N[C@@H](CCCNC(=N)N)C(=O)N[C@@H](CC(=O)O)C(=O)N[C@@H](Cc1ccccc1)C(=O)N[C@H](C(=O)N[C@@H](CC(N)=O)C(=O)N[C@@H](Cc1c[nH]c2ccccc12)C(=O)N[C@@H](CC(C)C)C(=O)N[C@H](C(=O)N[C@@H](CCC(N)=O)C(=O)N[C@H](C(=O)N[C@@H](CCCCN)C(=O)N[C@H](C(=O)N[C@H](C(=O)N[C@@H](CC(=O)O)C(=O)O)[C@@H](C)O)[C@@H](C)CC)[C@@H](C)O)[C@@H](C)CC)[C@@H](C)CC)[C@@H](C)O)[C@@H](C)CC)[C@@H](C)O [[Nlel0]ratGLP-2(1-33), [Nle^10]ratGLP-2(1-33)] (H-HADGSFSDE[Nle]NTILDNLATRDFINWLIQTKITD-OH) | 52 | 100 |  |
| H-HGDGSFSDEMNTILDNLAARDFINWLIQTKATD-OH [[Gly2,Ala31]hGLP-2(1-33)] | 28 | 100 |  |
| H-HADGSFSDEMNTILDNLATKDFINWLIQTKITD-OH [[Lys20]ratGLP-2(1-33)] | 62 | 120 |  |
| H-HGDGSFSDAMNTILDNLAARDFINWLIQTKITD-OH [[Gly2,Ala9]hGLP-2(1-33)] | 31 | 112 |  |
| H-HADGSFSDEMNTILDNLAARDFVQWLIQTKITD-OH [[Val23,Gln24]hGLP-2(1-33)] | 36 | 82 |  |
| H-HGDGSFSDEMNTILDNAAARDFINWLIQTKITD-OH [[Gly2,Ala17]hGLP-2(1-33)] | 36 | 130 |  |
| [Met SO2^10]rGLP-2 | 8 |  |  |
| H-HADGSFSDYSKYLDNLAARDFINWLIQTKITD-OH [[Tyr9, Ser10, Lys11, Tyr12, des-Ile13]hGLP-2(1-33)] | 41 | 94 |  |
| H-HGDGSFSDEMNTILDNLAARAFINWLIQTKITD-OH [[Gly2,Ala21]hGLP-2(1-33)] | 35 | 125 |  |
